Experiments:
[1] = biological target: T1, Androgen receptor (Homo sapiens, UniProt P10275); experiment: Binding affinity to human androgen receptor
T1 sequence (P10275 whole entry): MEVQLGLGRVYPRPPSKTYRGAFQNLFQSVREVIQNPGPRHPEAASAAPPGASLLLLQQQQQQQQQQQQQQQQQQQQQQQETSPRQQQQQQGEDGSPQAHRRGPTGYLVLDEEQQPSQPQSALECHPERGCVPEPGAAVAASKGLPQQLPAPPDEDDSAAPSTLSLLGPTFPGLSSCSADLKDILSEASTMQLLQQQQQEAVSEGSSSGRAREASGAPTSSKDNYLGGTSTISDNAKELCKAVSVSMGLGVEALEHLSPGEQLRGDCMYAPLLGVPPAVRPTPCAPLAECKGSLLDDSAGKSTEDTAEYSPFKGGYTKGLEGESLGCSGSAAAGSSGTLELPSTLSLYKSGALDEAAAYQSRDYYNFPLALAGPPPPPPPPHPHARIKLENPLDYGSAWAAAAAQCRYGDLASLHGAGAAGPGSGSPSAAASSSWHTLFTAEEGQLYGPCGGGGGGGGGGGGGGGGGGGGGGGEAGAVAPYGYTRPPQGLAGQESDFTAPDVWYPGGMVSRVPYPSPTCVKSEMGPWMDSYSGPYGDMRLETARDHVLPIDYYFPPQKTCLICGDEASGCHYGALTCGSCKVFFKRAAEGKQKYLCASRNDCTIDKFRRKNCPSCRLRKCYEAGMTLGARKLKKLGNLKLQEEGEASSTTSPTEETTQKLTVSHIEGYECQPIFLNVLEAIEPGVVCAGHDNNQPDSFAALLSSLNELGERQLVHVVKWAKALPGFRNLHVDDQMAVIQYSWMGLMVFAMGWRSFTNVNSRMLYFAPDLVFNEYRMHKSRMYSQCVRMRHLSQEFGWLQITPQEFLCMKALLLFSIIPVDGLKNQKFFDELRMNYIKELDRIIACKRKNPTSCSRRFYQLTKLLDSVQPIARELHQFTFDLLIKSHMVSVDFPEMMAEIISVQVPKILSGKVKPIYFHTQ

[2] = biological target: T2, Estrogen receptor (Homo sapiens, UniProt P03372); experiment: Binding affinity to human ERalpha
T2 sequence (P03372 whole entry): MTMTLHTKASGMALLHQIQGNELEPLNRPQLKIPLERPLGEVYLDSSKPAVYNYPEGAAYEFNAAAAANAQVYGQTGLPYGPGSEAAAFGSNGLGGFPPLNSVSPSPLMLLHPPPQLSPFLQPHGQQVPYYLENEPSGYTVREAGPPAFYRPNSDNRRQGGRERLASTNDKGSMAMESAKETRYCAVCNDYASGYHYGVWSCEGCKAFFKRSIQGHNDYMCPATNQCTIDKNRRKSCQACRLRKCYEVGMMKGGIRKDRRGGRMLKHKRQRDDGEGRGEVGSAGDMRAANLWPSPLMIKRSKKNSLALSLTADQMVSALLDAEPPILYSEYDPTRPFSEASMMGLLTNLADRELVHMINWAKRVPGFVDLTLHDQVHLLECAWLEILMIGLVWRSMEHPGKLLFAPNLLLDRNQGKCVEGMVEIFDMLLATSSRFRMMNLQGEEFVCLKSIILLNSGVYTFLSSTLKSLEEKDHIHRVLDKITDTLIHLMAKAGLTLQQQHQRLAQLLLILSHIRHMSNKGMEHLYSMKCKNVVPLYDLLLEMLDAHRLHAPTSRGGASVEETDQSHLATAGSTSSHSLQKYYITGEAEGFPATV

[3] = biological target: T3, Glucocorticoid receptor (Homo sapiens, UniProt P04150); experiment: Binding affinity to human glucocorticoid receptor
T3 sequence (P04150 whole entry): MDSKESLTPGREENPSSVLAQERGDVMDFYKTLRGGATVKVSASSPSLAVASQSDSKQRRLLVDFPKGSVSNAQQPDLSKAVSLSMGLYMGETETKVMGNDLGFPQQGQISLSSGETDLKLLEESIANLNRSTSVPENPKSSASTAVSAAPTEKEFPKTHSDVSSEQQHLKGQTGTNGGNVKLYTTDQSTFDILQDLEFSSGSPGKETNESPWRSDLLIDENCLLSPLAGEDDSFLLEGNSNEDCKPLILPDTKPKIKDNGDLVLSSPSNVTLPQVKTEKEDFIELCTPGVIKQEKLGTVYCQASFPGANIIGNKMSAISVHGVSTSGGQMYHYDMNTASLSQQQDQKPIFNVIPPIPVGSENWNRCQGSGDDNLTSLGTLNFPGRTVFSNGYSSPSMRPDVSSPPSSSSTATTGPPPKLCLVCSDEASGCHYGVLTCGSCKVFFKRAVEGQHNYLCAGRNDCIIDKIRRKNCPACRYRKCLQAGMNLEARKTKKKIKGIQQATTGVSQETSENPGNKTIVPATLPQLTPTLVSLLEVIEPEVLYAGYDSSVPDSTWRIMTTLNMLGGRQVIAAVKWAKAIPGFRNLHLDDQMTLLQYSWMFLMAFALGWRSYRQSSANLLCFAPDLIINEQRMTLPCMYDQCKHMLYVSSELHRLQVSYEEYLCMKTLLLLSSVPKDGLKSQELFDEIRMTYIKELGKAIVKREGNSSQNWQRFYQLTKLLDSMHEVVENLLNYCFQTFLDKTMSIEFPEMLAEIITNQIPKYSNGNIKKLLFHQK

[4] = biological target: Estrogen receptor beta (Homo sapiens, UniProt Q92731); experiment: Binding affinity to human ERbeta
[5] = biological target: T3, Glucocorticoid receptor; experiment: Transrepression activity at GR in human SW1353 cells assessed as inhibition of IL1-stimulated MMP13 production after 24 hrs by whole cell ELISA; format: cell-based
[6] = biological target: T4, Progesterone receptor (Homo sapiens, UniProt P06401); experiment: Binding affinity to human progesterone receptor
T4 sequence (P06401 whole entry): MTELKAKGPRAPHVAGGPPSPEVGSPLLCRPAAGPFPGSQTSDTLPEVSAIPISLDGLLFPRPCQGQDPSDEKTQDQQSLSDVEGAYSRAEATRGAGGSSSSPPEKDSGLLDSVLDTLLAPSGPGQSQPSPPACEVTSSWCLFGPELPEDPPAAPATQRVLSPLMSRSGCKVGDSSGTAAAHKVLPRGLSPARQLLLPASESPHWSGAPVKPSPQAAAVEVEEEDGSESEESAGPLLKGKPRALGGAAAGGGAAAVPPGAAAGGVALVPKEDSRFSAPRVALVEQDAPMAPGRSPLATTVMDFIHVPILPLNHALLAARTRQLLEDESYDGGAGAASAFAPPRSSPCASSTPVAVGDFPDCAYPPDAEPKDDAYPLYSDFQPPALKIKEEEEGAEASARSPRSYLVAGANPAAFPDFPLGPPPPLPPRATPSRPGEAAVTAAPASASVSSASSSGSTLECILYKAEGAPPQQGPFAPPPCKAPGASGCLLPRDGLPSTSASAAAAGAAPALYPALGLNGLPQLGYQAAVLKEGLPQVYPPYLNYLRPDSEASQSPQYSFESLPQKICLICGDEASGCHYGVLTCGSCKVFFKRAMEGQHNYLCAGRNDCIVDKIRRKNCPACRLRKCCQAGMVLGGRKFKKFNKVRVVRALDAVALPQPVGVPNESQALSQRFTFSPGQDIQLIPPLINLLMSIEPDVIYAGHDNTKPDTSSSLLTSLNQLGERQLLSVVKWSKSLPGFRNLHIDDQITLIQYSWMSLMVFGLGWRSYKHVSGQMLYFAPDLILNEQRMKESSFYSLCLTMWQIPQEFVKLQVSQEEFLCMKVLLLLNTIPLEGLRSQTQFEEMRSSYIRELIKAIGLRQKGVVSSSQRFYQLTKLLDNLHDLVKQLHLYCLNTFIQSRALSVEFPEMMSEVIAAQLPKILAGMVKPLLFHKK

[7] = biological target: T3, Glucocorticoid receptor; experiment: Transrepression activity at GR in human SW1353 cells assessed as suppression of NFkappaB-induced IL8 production; format: cell-based

Sequence of Estrogen receptor beta (Q92731 whole entry): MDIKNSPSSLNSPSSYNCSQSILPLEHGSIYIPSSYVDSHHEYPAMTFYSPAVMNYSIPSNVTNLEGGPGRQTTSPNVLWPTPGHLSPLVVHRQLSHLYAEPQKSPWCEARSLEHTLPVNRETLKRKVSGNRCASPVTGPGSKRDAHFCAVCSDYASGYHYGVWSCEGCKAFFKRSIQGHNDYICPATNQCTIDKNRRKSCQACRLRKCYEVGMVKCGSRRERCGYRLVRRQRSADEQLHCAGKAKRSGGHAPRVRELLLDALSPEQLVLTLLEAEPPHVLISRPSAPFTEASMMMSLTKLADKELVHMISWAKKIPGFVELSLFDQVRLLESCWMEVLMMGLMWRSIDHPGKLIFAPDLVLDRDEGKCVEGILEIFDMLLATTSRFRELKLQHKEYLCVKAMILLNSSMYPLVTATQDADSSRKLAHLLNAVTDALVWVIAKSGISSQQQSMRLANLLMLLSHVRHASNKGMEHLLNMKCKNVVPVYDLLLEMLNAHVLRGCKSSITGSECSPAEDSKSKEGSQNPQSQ

Row | IC50 [1] | IC50 [2] | IC50 [3] | IC50 [4] | IC50 [5] | IC50 [6] | IC50 [7] | Structure (SMILES)
1 | > 10000 nM | > 10000 nM | 3.3 nM | > 10000 nM | 15 nM | > 10000 nM |  | CC#C[C@]1(O)C[C@H]2CCc3cc(OCc4cccnc4C)ccc3[C@]2(CC)C[C@@H]1O
2 |  |  | 3.8 nM |  | 5000 nM |  |  | CC[C@@]12C[C@@H](O)[C@](O)(c3ccccc3)C[C@H]1CCc1cc(O)ccc12
3 | > 10000 nM | > 10000 nM | 35 nM | > 10000 nM | 63 nM | > 10000 nM |  | CC#C[C@]1(O)C[C@H]2CCc3cc(O)ccc3[C@]2(CC)C[C@@H]1O
4 |  |  | 17 nM |  | > 5000 nM |  |  | CC#C[C@@]1(O)CC[C@@]2(C)c3ccc(O)cc3CC[C@@H]2C1
5 |  |  | 21 nM |  | > 5000 nM |  |  | CC[C@@]12CC[C@](O)(c3ccccc3)C[C@H]1CCc1cc(O)ccc12
6 |  |  | 6 nM |  | 1500 nM |  |  | CC[C@@]12CC[C@](O)(c3ccccc3)C[C@H]1CCc1cc(OCc3cccnc3C)ccc12
7 | > 10000 nM | 3400 nM | 2.5 nM | 660 nM | 140 nM | 750 nM |  | CC[C@@]12C[C@H](O)[C@](O)(c3ccccc3)C[C@H]1CCc1cc(O)ccc12
8 |  |  | > 1000 nM |  |  |  |  | CC#C[C@@]1(O)CC[C@@]2(CCO)c3ccc(O)cc3CC[C@@H]2C1
9 |  |  | > 1000 nM |  |  |  |  | CC#C[C@@]1(O)CC[C@@]2(CO)c3ccc(O)cc3CC[C@@H]2C1
10 | > 10000 nM | > 10000 nM | 360 nM | > 10000 nM |  |  |  | CC#C[C@]1(O)C[C@H]2CCc3cc(O)ccc3[C@]2(CC)[C@H](O)C1
11 | > 1000 nM | 93 nM | 6.2 nM | 250 nM | 14 nM | 1100 nM | 34 nM | C=CCC12CC[C@](O)(C#CC)C[C@H]1CCc1cc(O)ccc12 (single isomer, unassigned)
12 |  |  | 3.5 nM |  | > 5000 nM |  |  | CC#C[C@@]1(O)CC[C@@]2(/C=C/C)c3ccc(O)cc3CC[C@@H]2C1

Row | Structure (SMILES) | IC50 [1] | IC50 [2] | IC50 [3] | IC50 [4] | IC50 [5] | IC50 [6] | IC50 [7]
13 | CC[C@@]12C[C@H](O)[C@](O)(c3ccccc3)C[C@H]1CCc1cc(OCc3cccnc3C)ccc12 | > 10000 nM | > 10000 nM | 1.5 nM | > 10000 nM | 38 nM | > 1000 nM | 
14 | CC#C[C@@]1(O)CC[C@@]2(CCC)c3ccc(O)cc3CC[C@@H]2C1 |  |  | 1.5 nM |  | > 5000 nM |  | 
15 | CC#C[C@@]1(O)CC[C@@]2(CC)c3ccc(OCc4ccncc4)cc3CC[C@@H]2C1 |  | 670 nM | 3 nM | 3500 nM | 31 nM |  | 
16 | CC#C[C@@]1(O)CC[C@@]2(CC)c3ccc(OCc4cccnc4C)cc3CC[C@@H]2C1 | 880 nM | > 10000 nM | 2.3 nM | > 10000 nM | 6.3 nM |  | 
17 | CC[C@@]12C[C@H](O)[C@H](c3ccccc3)C[C@H]1CCc1cc(O)ccc12 |  |  | 1.3 nM |  | 1100 nM |  | 
18 | CC#C[C@@]1(O)CC[C@@]2(CC)c3ccc(O)cc3CC[C@@H]2C1 | 420 nM | 89 nM | 5.6 nM | 580 nM | 14 nM | 2600 nM | 

— ChEMBL document CHEMBL1152783, “Octahydrophenanthrene-2,7-diol analogues as dissociated glucocorticoid receptor agonists: discovery and lead exploration” (J Med Chem, 2009)
